Laboratory results: patent US20060252807A1, “Novel ortho-terphenyl inhibitors of p38 kinase and methods of treating inflammatory disorders” (Kalypsys, Inc., priority 2005, published 2006)

Molecular target: T1, active p38 alpha enzyme (Upstate Biotechnology) (Homo sapiens, UniProt Q16539)
T1 construct: purchased Upstate Biotechnology
Test: p38α biochemical assay (ATP turnover, luminescent detection, Cambrex PKlight)
Settings: p38α biochemical assay, Table 1 Biological Activity
In short: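 In this kinase reaction, p38α used MapkapK2 as phosphorylation substrate at low ATP (1.4 uM final) over 2 hours at 30C, and activity was followed as ATP turnover by luminescence.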

T1 sequence (Q16539 whole entry): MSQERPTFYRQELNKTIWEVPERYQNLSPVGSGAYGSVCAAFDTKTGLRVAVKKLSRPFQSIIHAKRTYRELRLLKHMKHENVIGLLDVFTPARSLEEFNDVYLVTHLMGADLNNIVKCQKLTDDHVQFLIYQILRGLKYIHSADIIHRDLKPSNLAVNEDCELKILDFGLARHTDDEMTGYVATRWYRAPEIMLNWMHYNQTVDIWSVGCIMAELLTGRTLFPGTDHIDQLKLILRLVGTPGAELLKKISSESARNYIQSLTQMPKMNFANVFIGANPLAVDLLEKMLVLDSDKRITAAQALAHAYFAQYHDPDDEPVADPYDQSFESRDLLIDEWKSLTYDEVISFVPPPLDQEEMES

IC50 | Structure (SMILES)
> 1000 nM | Cc1ccc(O)c(C(=O)NCc2nc(-c3ccc(F)cc3)c(-c3nc(C(=O)NC(C)C)cs3)o2)c1 [Example 145]
≤ 1000 nM | CC(C)NC(=O)c1csc(-c2oc(CNC(=O)c3cc(O)ccc3O)nc2-c2ccc(F)cc2)n1 [Example 146]
≤ 1000 nM | CC(C)NC(=O)c1csc(-c2oc(CNC(=O)c3cccc(O)c3O)nc2-c2ccc(F)cc2)n1 [Example 147]
≤ 1000 nM | CC(C)NC(=O)c1csc(-c2oc(CNC(=O)c3ccc(O)cc3O)nc2-c2ccc(F)cc2)n1 [Example 148]
> 1000 nM | Cc1ccc(C(=O)NCc2nc(-c3ccc(F)cc3)c(-c3nc(C(=O)NC(C)C)cs3)o2)cc1F [Example 149]
≤ 1000 nM | Cc1ccc(F)cc1C(=O)NCc1nc(-c2ccc(F)cc2)c(-c2nc(C(=O)NC(C)C)cs2)o1 [Example 150]
≤ 1000 nM | CC(C)NC(=O)c1csc(-c2oc(CNC(=O)c3ccccc3Cl)nc2-c2ccc(F)cc2)n1 [Example 151]
≤ 1000 nM | CC(C)NC(=O)c1csc(-c2oc(CNC(=O)c3ccc(Cl)nc3)nc2-c2ccc(F)cc2)n1 [Example 152]
≤ 1000 nM | CC(C)NC(=O)c1csc(-c2oc(CNC(=O)c3cccnc3Cl)nc2-c2ccc(F)cc2)n1 [Example 153]
> 1000 nM | CC(C)NC(=O)c1csc(-c2oc(CNC(=O)c3ccnc(Cl)c3)nc2-c2ccc(F)cc2)n1 [Example 154]
> 1000 nM | CC(C)NC(=O)c1csc(-c2oc(CNC(=O)c3cc(Cl)ccn3)nc2-c2ccc(F)cc2)n1 [Example 155]
≤ 1000 nM | CC(C)NC(=O)c1csc(-c2oc(CNC(=O)c3ccncc3Cl)nc2-c2ccc(F)cc2)n1 [Example 156]
≤ 1000 nM | CC(C)NC(=O)c1csc(-c2oc(CNC(=O)c3c(F)cccc3F)nc2-c2ccc(F)cc2)n1 [Example 157]
≤ 1000 nM | CC(C)NC(=O)c1csc(-c2oc(CNC(=O)c3cccc(F)c3F)nc2-c2ccc(F)cc2)n1 [Example 158]
≤ 1000 nM | CC(C)NC(=O)c1csc(-c2oc(CNC(=O)c3ccc(F)cc3F)nc2-c2ccc(F)cc2)n1 [Example 159]
> 1000 nM | CC(C)NC(=O)c1csc(-c2oc(CNC(=O)c3cc(F)cc(F)c3)nc2-c2ccc(F)cc2)n1 [Example 160]
> 1000 nM | CC(C)NC(=O)c1csc(-c2oc(CNC(=O)c3ccc(F)c(F)c3)nc2-c2ccc(F)cc2)n1 [Example 161]
≤ 1000 nM | CC(=O)c1ccc(C(=O)NCc2nc(-c3ccc(F)cc3)c(-c3nc(C(=O)NC(C)C)cs3)o2)cc1 [Example 167]
> 1000 nM | CC(=O)c1cccc(C(=O)NCc2nc(-c3ccc(F)cc3)c(-c3nc(C(=O)NC(C)C)cs3)o2)c1 [Example 169]
> 1000 nM | CC(C)NC(=O)c1csc(-c2oc(CNC(=O)c3ccc(C(C)C)cc3)nc2-c2ccc(F)cc2)n1 [Example 171]

IC50 | Structure (SMILES)
> 1000 nM | CCCc1ccc(C(=O)NCc2nc(-c3ccc(F)cc3)c(-c3nc(C(=O)NC(C)C)cs3)o2)cc1 [Example 176]
> 1000 nM | CC(C)NC(=O)c1csc(-c2oc(CNC(=O)c3ccc4c(c3)OCO4)nc2-c2ccc(F)cc2)n1 [Example 177]
> 1000 nM | CCOc1ccccc1C(=O)NCc1nc(-c2ccc(F)cc2)c(-c2nc(C(=O)NC(C)C)cs2)o1 [Example 179]
> 1000 nM | CC(C)NC(=O)c1csc(-c2oc(CNC(=O)c3cccc([N+](=O)[O-])c3)nc2-c2ccc(F)cc2)n1 [Example 185]
> 1000 nM | COc1ccc(O)c(C(=O)NCc2nc(-c3ccc(F)cc3)c(-c3nc(C(=O)NC(C)C)cs3)o2)c1 [Example 187]
> 1000 nM | COc1ccc(C(=O)NCc2nc(-c3ccc(F)cc3)c(-c3nc(C(=O)NC(C)C)cs3)o2)c(O)c1 [Example 188]
> 1000 nM | COc1ccc(C(=O)NCc2nc(-c3ccc(F)cc3)c(-c3nc(C(=O)NC(C)C)cs3)o2)cc1O [Example 189]
> 1000 nM | Cc1cc(C(=O)NCc2nc(-c3ccc(F)cc3)c(-c3nc(C(=O)NC(C)C)cs3)o2)cc(Cl)n1 [Example 192]
> 1000 nM | CC(C)NC(=O)c1csc(-c2oc(CNC(=O)c3ccc(Cl)cc3O)nc2-c2ccc(F)cc2)n1 [Example 195]
> 1000 nM | CC(C)NC(=O)c1csc(-c2oc(CNC(=O)c3cc(Cl)ccc3O)nc2-c2ccc(F)cc2)n1 [Example 196]
≤ 1000 nM | CC(C)NC(=O)c1csc(-c2oc(CNC(=O)c3ccc4ncccc4c3)nc2-c2ccc(F)cc2)n1 [Example 197]
≤ 1000 nM | CC(C)NC(=O)c1csc(-c2oc(CNC(=O)c3cnc(O)c(Cl)c3)nc2-c2ccc(F)cc2)n1 [Example 198]
≤ 1000 nM | CC(C)NC(=O)c1csc(-c2oc(CNC(=O)c3ccc(F)cc3Cl)nc2-c2ccc(F)cc2)n1 [Example 199]
≤ 1000 nM | CC(C)NC(=O)c1csc(-c2oc(CNC(=O)c3c(F)cccc3Cl)nc2-c2ccc(F)cc2)n1 [Example 200]
> 1000 nM | CCCCc1ccc(C(=O)NCc2nc(-c3ccc(F)cc3)c(-c3nc(C(=O)NC(C)C)cs3)o2)cc1 [Example 208]
> 1000 nM | CC(C)NC(=O)c1csc(-c2oc(CNC(=O)c3ccc(C(C)(C)C)cc3)nc2-c2ccc(F)cc2)n1 [Example 209]
> 1000 nM | CC(C)NC(=O)c1csc(-c2oc(CNC(=O)c3ccc(N(C)C=O)cc3)nc2-c2ccc(F)cc2)n1 [Example 210]
> 1000 nM | CC(=O)Nc1cccc(C(=O)NCc2nc(-c3ccc(F)cc3)c(-c3nc(C(=O)NC(C)C)cs3)o2)c1 [Example 211]
> 1000 nM | CC(=O)Oc1ccc(C(=O)NCc2nc(-c3ccc(F)cc3)c(-c3nc(C(=O)NC(C)C)cs3)o2)cc1 [Example 213]

Further lines, the compound ahead of its results:

Structure (SMILES) | IC50
CC(C)NC(=O)c1csc(-c2oc(CNC(=O)Cc3ccccc3O)nc2-c2ccc(F)cc2)n1 [Example 143] | ≤ 1000 nM
CC(C)NC(=O)c1csc(-c2oc(CNC(=O)Cc3cccc(O)c3)nc2-c2ccc(F)cc2)n1 [Example 144] | ≤ 1000 nM
CC(CC(=O)NCc1nc(-c2ccc(F)cc2)c(-c2nc(C(=O)NC(C)C)cs2)o1)CC(C)(C)C (centres unmarked) [Example 162] | > 1000 nM
CC(C)NC(=O)c1csc(-c2oc(CNC(=O)c3cc4ccccc4o3)nc2-c2ccc(F)cc2)n1 [Example 163] | > 1000 nM
CC(C)NC(=O)c1csc(-c2oc(CNC(=O)C3CCc4ccccc43)nc2-c2ccc(F)cc2)n1 (centres unmarked) [Example 164] | > 1000 nM
CC(C)NC(=O)c1csc(-c2oc(CNC(=O)C(Cl)(Cl)Cl)nc2-c2ccc(F)cc2)n1 [Example 165] | > 1000 nM
CC(C)NC(=O)c1csc(-c2oc(CNC(=O)/C=C/c3ccccc3O)nc2-c2ccc(F)cc2)n1 [Example 166] | ≤ 1000 nM
CC(C)NC(=O)c1csc(-c2oc(CNC(=O)/C=C/c3cccc(O)c3)nc2-c2ccc(F)cc2)n1 [Example 168] | ≤ 1000 nM
CC(=O)c1ccccc1C(=O)NCc1nc(-c2ccc(F)cc2)c(-c2nc(C(=O)NC(C)C)cs2)o1 [Example 170] | > 1000 nM
Cc1ccccc1CCC(=O)NCc1nc(-c2ccc(F)cc2)c(-c2nc(C(=O)NC(C)C)cs2)o1 [Example 172] | > 1000 nM
Cc1cccc(CCC(=O)NCc2nc(-c3ccc(F)cc3)c(-c3nc(C(=O)NC(C)C)cs3)o2)c1 [Example 173] | > 1000 nM
CCC(C(=O)NCc1nc(-c2ccc(F)cc2)c(-c2nc(C(=O)NC(C)C)cs2)o1)c1ccccc1 (centres unmarked) [Example 174] | > 1000 nM
Cc1cc(C)c(C(=O)NCc2nc(-c3ccc(F)cc3)c(-c3nc(C(=O)NC(C)C)cs3)o2)c(C)c1 [Example 175] | > 1000 nM
CC(C)NC(=O)c1csc(-c2oc(CNC(=O)/C=C/c3ccccc3F)nc2-c2ccc(F)cc2)n1 [Example 178] | ≤ 1000 nM
Cc1ccccc1OCC(=O)NCc1nc(-c2ccc(F)cc2)c(-c2nc(C(=O)NC(C)C)cs2)o1 [Example 180] | > 1000 nM
CC(C)NC(=O)c1csc(-c2oc(CNC(=O)CCc3ccccc3O)nc2-c2ccc(F)cc2)n1 [Example 181] | ≤ 1000 nM

Structure (SMILES) | IC50
COc1ccccc1CC(=O)NCc1nc(-c2ccc(F)cc2)c(-c2nc(C(=O)NC(C)C)cs2)o1 [Example 182] | ≤ 1000 nM
CC(C)NC(=O)c1csc(-c2oc(CNC(=O)C(C)c3ccc(O)cc3)nc2-c2ccc(F)cc2)n1 (centres unmarked) [Example 183] | ≤ 1000 nM
CC(C)NC(=O)c1csc(-c2oc(CNC(=O)c3ccccc3[N+](=O)[O-])nc2-c2ccc(F)cc2)n1 [Example 184] | ≤ 1000 nM
COc1cccc(O)c1C(=O)NCc1nc(-c2ccc(F)cc2)c(-c2nc(C(=O)NC(C)C)cs2)o1 [Example 186] | > 1000 nM
CC(C)NC(=O)c1csc(-c2oc(CNC(=O)c3cc(O)c(O)c(O)c3)nc2-c2ccc(F)cc2)n1 [Example 190] | ≤ 1000 nM
CC(C)NC(=O)c1csc(-c2oc(CNC(=O)Cc3ccc(O)c(F)c3)nc2-c2ccc(F)cc2)n1 [Example 191] | ≤ 1000 nM
CC(C)NC(=O)c1csc(-c2oc(CNC(=O)Cc3c(F)cccc3F)nc2-c2ccc(F)cc2)n1 [Example 193] | ≤ 1000 nM
CC(C)NC(=O)c1csc(-c2oc(CNC(=O)c3cccc4ccccc34)nc2-c2ccc(F)cc2)n1 [Example 194] | ≤ 1000 nM
CC(C)NC(=O)c1csc(-c2oc(CNC(=O)CNC(=O)OC(C)(C)C)nc2-c2ccc(F)cc2)n1 [Example 201] | > 1000 nM
Cc1c(C(=O)NCc2nc(-c3ccc(F)cc3)c(-c3nc(C(=O)NC(C)C)cs3)o2)oc2ccccc12 [Example 202] | > 1000 nM
CC(C)NC(=O)c1csc(-c2oc(CNC(=O)CC3Cc4ccccc4C3)nc2-c2ccc(F)cc2)n1 [Example 203] | > 1000 nM
CC(C)NC(=O)c1csc(-c2oc(CNC(=O)C3CCc4ccccc4C3)nc2-c2ccc(F)cc2)n1 (centres unmarked) [Example 204] | > 1000 nM
COc1ccccc1/C=C/C(=O)NCc1nc(-c2ccc(F)cc2)c(-c2nc(C(=O)NC(C)C)cs2)o1 [Example 205] | > 1000 nM
CC(C)NC(=O)c1csc(-c2oc(CNC(=O)c3csc4ccccc34)nc2-c2ccc(F)cc2)n1 [Example 206] | > 1000 nM
CC(C)NC(=O)c1csc(-c2oc(CNC(=O)c3cc4ccccc4s3)nc2-c2ccc(F)cc2)n1 [Example 207] | ≤ 1000 nM
CC(C)NC(=O)c1csc(-c2oc(CNC(=O)COc3ccccc3C=O)nc2-c2ccc(F)cc2)n1 [Example 212] | > 1000 nM
